The values below come from patent publication US20110294732A1, “ERYTHROPOLETIN COMPLEMENTATION OR REPLACEMENT” (Universite De Strasbourg, priority 2007, published 2011).

One data set is described as follows: Solubility of ITPP salts. It is filed as physicochemical. The text has this: (§1) Alternatively, ITPP-Ca can be produced by the addition of equimolar amounts of CaCl2 with an aqueous solution of ITPP-Na. The resulting mixture gives ITPP-Ca, which contains NaCl as an impurity.
Another data set in a line: Toxicity of ITPP salts. The following applies: compared with the calcium salt / mixed salt.
Source text: as §1

The next data set deals with circulating RBC. Kind of data set: P50 shift of circulating RBC after oral administration in drinking water. Type of data set: in vivo, C57BL/6 mice. How it is done:
In experiments conducted in vivo in which ITPP was administered orally, ITPP was dissolved in drinking (not deionized) water at a 20 g/L-concentration (=27 mM, pH 7.0) and offered for drinking ad libitum. A significant shift of the P50 value of circulating RBCs was observed.
Twelve C57BL/6 mice drank ITPP over 4 days (about 25 ml/24 hrs). Seven Control mice drank either pure water (three mice), or a solution of IHP (inositol hexaphosphate without the internal pyrophosphate rings) at the same concentration and pH as ITPP (4 mice). […] Blood was collected from the tail vein of the 12 C57BL/6 mice on day 0 (before treatment started), 1, 2, 4, 6, 7, 8, 10, 11 and 12, in order to measure P50 values. […] Oral application of ITPP caused significant right shifts of P50 (up to 31%) in mice.
The 12 mice were observed over 12 days, the P50 values of their circulating RBC were measured almost daily. […] It appears that all mice ingesting the aqueous solution of ITPP present a shift of the P50 value of their circulating RBC, albeit with individual differences. FIG. 8 illustrates the individual differences in the P50 shift induced in the mice by ingestion of the aqueous solution of ITPP.

Data set [1] addresses T1, hemoglobin (Homo sapiens, UniProt P68871). The following applies: relative to DPG; cited from earlier work.
Data set [2] in a line: Blood counts of mice after oral ingestion. Type of data set: in vivo. To be noted: single mouse, oral in water for 4 days, day 7; day 0 count 8.9-11.8. The text has this: Blood from mice that ingested ITPP or IHP in water (for 4 days) or water only was collected on day 0, 7 and 11, in order to assess any differences in the blood count (and the amount of erythropoietin in the sera) of treated and control mice. […] The amount of blood from the other mice was not sufficient to determine the blood count.

For data set [3], the target named is T1, hemoglobin. To be noted: pH 7.4 and 37 degrees C; cited from earlier work.
Data set [4] can be described thus: Blood counts of mice after oral ingestion. To be noted: single mouse, oral in water for 4 days; day 0 count 8.9-11.8. It is filed as in vivo.

T1 sequence (P68871 2-147 limits assumed): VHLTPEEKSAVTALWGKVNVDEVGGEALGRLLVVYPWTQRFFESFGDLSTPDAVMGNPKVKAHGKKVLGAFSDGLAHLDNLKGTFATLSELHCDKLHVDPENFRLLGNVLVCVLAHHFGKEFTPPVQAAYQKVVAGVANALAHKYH
T1 sequence (P69905 2-142 partner limits assumed): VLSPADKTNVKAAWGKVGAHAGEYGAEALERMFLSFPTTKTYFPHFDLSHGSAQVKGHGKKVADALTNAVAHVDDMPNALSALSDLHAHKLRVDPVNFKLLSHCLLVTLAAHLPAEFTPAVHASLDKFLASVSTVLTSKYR

Regarding `O=P1([O-])OC2C3OP(=O)([O-])OP(=O)([O-])OC3C3OP(=O)([O-])OP(=O)([O-])OC3C2OP(=O)([O-])O1.[Ca+2].[Ca+2].[Ca+2]` (stereo not drawn) [pure calcium salt of ITPP, Calcium Salt of myo-inositol 1,6:2,3:4,5-tripyrophosphate], the solubility entry in the data set “Solubility of ITPP salts” is “relatively insoluble”.
As for `O=P1([O-])OC2C3OP(=O)([O-])OP(=O)([O-])OC3C3OP(=O)([O-])OP(=O)([O-])OC3C2OP(=O)([O-])O1.[Na+].[Na+].[Na+].[Na+].[Na+].[Na+]` (stereo not drawn) [pure sodium salt, myo-inositol tripyrophosphate], in the data set “Toxicity of ITPP salts”, the toxicity result is “relatively more toxic”.
In the case of `O=P(O)(O)O[C@H]1[C@H](OP(=O)(O)O)[C@@H](OP(=O)(O)O)[C@H](OP(=O)(O)O)[C@@H](OP(=O)(O)O)[C@H]1OP(=O)(O)O` [IHP, Inositol hexaphosphate, reference compound], the “right shift of P50” value in the data set with circulating RBC (oral, 20 g/L (27 mM) in drinking water over 4 days) is “complete absence of shift”. Also, in the data set on circulating RBC (single mouse, oral in water for 4 days, day 7), the “P50 day 7, %” value is listed as 3%. In addition, in the data set with circulating RBC (single mouse, oral in water for 4 days, day 10), the “P50 day 10, %” value is on record as 0%. Moreover, on hemoglobin [1], the “affinity to hemoglobin, higher than DPG” value is 1000 fold. For the same molecule, the “RBC × 10^6/mm^3 (day 7)” value in data set [2] is given as 9.6 10^6/mm^3. Besides, at hemoglobin [3], the “P50 of hemoglobin increased up to” value was ≤ 96.4 mm Hg. In addition, the “RBC × 10^6/mm^3” value in data set [4] is on record as 10.77 10^6/mm^3.
